Our source for the IC50 and inhibition values is patent publication US5225528A, “Cyclic hexapeptide oxytocin antagonists” (priority 1990, dated 1993).

The target in one assay is T1, AVP-V1 sites (Rattus norvegicus, UniProt P30560).
T1 construct: crude membrane preparation of male rat liver (AVP-V1 sites); from tissue; host or cells: male rat liver, crude membranes
Kind of assay: [^3 H]AVP binding to crude membrane preparation of male rat liver (AVP-V1 sites). The protocol: (§1) Nonspecific binding (5-10% of the total binding) was determined using 10 μM unlabeled AVP, and the binding reaction was terminated by filtration as described above for the [^3 H]OT binding assay.

Another assay has as its target T2, uterine OT receptors (Rattus norvegicus, UniProt P70536).
T2 construct: from tissue; host or cells: uterus of DES-treated rats, crude membranes
T2 sequence (P70536 1-388): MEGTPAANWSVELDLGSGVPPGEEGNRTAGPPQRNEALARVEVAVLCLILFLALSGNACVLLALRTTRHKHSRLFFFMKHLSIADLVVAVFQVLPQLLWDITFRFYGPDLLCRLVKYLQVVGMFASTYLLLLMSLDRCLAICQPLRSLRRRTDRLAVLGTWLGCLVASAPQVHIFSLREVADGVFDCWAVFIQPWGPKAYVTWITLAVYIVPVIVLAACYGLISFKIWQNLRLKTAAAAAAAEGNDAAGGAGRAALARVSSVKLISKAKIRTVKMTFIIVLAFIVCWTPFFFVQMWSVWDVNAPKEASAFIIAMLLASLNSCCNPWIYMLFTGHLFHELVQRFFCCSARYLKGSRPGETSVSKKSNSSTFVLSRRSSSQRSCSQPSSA
Kind of assay: [^3 H]OT binding to uterine OT receptors, crude membrane preparation of uteri from DES-treated rats. Conditions: for inhibition at 0.01 µM: @ 10 (nM); for IC50: rat uterus membranes, 1 nM [^3 H]OT, read-out: Receptor Binding Results IC50 (nM) [^3 H]OT; for inhibition at 0.1 µM: @ 100 (nM). The protocol:
Competition studies were conducted at equilibrium (60 minutes; 22° C.) using 1 nM [^3 H]OT in the following assay buffer: 50 mM Tris-HCl, 5 mM MgCl2, and 0.1% BSA, pH 7.4.

For a further assay, the target named is T3, AVP-V2 sites (Rattus norvegicus, UniProt Q00788).
T3 construct: male rat liver (AVP-V1 sites) or kidney medulla (AVP-V2 sites); from tissue; host or cells: male rat kidney medulla, crude membranes
Kind of assay: [^3 H]AVP binding to crude membrane preparation of male rat kidney medulla (AVP-V2 sites). The following applies: for inhibition at 1 µM: 0.5 h, @ 1,000 (nM), read-out: [^3 H]-AVP-V2: percent inhibition of radioligand at the given concentration. The procedure:
as §1

Setting [1] is: Receptor Binding Results IC50 (nM) [^3 H]-AVP-V1.
[2] abbreviates: 1 h, read-out: [^3 H]OT: percent inhibition of radioligand at the given concentration.
The mark [3] stands for this setting: read-out: Receptor Binding Results IC50 (nM) [^3 H]-AVP-V1.
The mark [4] stands for this setting: read-out: Receptor Binding Results IC50 (nM) [^3 H]-AVP-V2.
Where [5] appears, read: Receptor Binding Results IC50 (nM) [^3 H]-AVP-V2.
Where [6] appears, read: rat kidney medulla membranes, 2 nM [^3 H]AVP, read-out: Receptor Binding Results IC50 (nM) [^3 H]-AVP-V2.

Where two headings read alike, the source gives them in different places. Numbered stars: 1 amine (or outer) side, 2 acyl side, 3 side chain; on linkers, the order of the positions; unused ones are H or OH. Square brackets hold non-standard residues; d marks the D form. Peptide text beside a SMILES is read from it. * marks the point of attachment. dPip(4-aza,4-Cbz) = O=C(O)[C@H]1CN(C(=O)OCc2ccccc2)CCN1; X2 = O=C(OCc1ccccc1)N1CCN([*:1])[C@H](C(=O)[*:2])C1; d2Nal = N[C@H](Cc1ccc2ccccc2c1)C(=O)O; dNMehPhe = CN[C@H](CCc1ccccc1)C(=O)O; NMeI = CC[C@H](C)[C@H](NC)C(=O)O; Pip(4-aza) = O=C(O)[C@@H]1CNCCN1; X6 = O=C([C@H]1CCCNN1[*:1])[*:2]; dNMeF = CN[C@H](Cc1ccccc1)C(=O)O; hPhe = N[C@@H](CCc1ccccc1)C(=O)O; dOrn = NCCC[C@@H](N)C(=O)O; Pip = O=C(O)[C@@H]1CCCCN1; dPip = O=C(O)[C@H]1CCCCN1; Orn = NCCC[C@H](N)C(=O)O; Cbz = O=C(OCc1ccccc1)*; OtBu = CC(C)(C)O* Some results are limits rather than exact numbers.

T3 sequence (Q00788 whole entry): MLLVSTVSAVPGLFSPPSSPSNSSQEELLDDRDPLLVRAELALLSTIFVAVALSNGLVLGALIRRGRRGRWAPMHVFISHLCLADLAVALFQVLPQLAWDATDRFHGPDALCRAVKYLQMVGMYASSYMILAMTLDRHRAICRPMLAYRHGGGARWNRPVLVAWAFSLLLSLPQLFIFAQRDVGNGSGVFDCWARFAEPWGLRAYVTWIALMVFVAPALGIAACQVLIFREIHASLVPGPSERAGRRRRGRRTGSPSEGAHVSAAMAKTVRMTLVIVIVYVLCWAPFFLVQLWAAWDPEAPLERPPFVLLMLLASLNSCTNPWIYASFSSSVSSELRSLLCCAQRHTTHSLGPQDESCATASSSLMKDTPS
T1 sequence (P30560 whole entry): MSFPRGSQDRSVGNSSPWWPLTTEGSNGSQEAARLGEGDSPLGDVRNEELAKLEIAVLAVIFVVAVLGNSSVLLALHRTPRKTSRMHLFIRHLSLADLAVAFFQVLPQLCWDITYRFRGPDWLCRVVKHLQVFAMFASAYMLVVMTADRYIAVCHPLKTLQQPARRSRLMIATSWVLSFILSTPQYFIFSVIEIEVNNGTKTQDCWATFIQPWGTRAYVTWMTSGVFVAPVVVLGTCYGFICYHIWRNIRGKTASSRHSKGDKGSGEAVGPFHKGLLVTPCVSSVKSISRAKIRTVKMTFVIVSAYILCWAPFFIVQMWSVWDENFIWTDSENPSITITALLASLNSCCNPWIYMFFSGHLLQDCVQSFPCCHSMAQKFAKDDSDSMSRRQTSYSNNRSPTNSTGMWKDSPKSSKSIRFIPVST

In the case of `CC[C@H](C)[C@@H]1NC(=O)[C@@H](Cc2ccc3ccccc3c2)NC(=O)[C@@H]2CCCN2C(=O)[C@@H](Cc2c[nH]cn2)NC(=O)[C@H]2CN(C(=O)OCc3ccccc3)CCN2C(=O)[C@H]2CCCCN2C1=O` [Example 160, c-[D-2-Naphthylalanyl-L-isoleucyl-D-pipecolyl-D-piperazin-2-yl-(4-carbobenzyloxy)-D-hystidyl-L-prolyl]] (cyclo(I[dPip][dPip(4-aza,4-Cbz)][dH]P[d2Nal])), the IC50 (usually the concentration at which inhibition is half-maximal) at AVP-V1 sites (setting [1]) was greater than 1000 nM. For the same compound, the inhibition at 0.01 µM on uterine OT receptors (setting [2]) was 53%. Moreover, the inhibition at 1 µM on AVP-V2 sites was 66%.
For the compound `CC[C@H](C)[C@H]1C(=O)N2CCCC[C@@H]2C(=O)N2CCCC[C@H]2C(=O)N(C)[C@H](Cc2ccccc2)C(=O)N2CCC[C@H]2C(=O)N(C)[C@H](CCc2ccccc2)C(=O)N1C` [Example 166] (cyclo([NMeI][dPip][Pip][dNMeF]P[dNMehPhe])), the half-maximal inhibitory concentration (IC50) on AVP-V1 sites (setting [3]) is greater than 3000 nM; on uterine OT receptors, 23000 nM; on AVP-V2 sites (setting [4]), greater than 3000 nM.
The compound `CC[C@H](C)[C@@H]1NC(=O)[C@@H](Cc2ccc3ccccc3c2)NC(=O)[C@@H]2CCCN2C(=O)[C@@H](Cc2c[nH]cn2)NC(=O)[C@@H]2CN(C(=O)OCc3ccccc3)CCN2C(=O)[C@H]2CCCCN2C1=O` [Example 158, c-[D-2-Naphthylalanyl-L-isoleucyl-D-pipecolyl-L-piperazin-2-yl-(4-carbobenzyloxy)-D-histidyl-L-prolyl]] (cyclo(I[dPip][X2][dH]P[d2Nal])) had a concentration for half-maximal inhibition (IC50) at AVP-V1 sites (setting [1]) greater than 1000 nM. Besides, the inhibition at 0.01 µM at uterine OT receptors (setting [2]) was 60%. In addition, the inhibition at 1 µM on AVP-V2 sites worked out at 68%.
Consider `CN1C(=O)[C@@H]2CCCCN2C(=O)[C@H]2CCCCN2C(=O)[C@H](Cc2ccccc2)NC(=O)[C@@H](Cc2ccccc2)NC(=O)[C@@H]2CCCN2C(=O)[C@H]1Cc1ccccc1` [Example 136, c-[D-Phenylalanyl-L-phenylalanyl-D-pipecolyl-L-pipecolyl-D-(N-methyl)phenylalanyl-L-prolyl]] (cyclo(F[dPip][Pip][dNMeF]P[dF])), for which the IC50 is greater than 10000 nM at AVP-V1 sites (setting [1]), 410 nM at uterine OT receptors and 8000 nM on AVP-V2 sites (setting [4]).
As to `CC[C@H](C)[C@@H]1NC(=O)[C@@H](Cc2ccccc2)NC(=O)[C@@H]2CCCN2C(=O)[C@@H](CCCN)NC(=O)[C@@H]2CCCCN2C(=O)[C@H]2CCCCN2C1=O` [Example 39, Cyclo[D-phenylalanyl-L-isoleucyl-D-pipecolyl-L-pipecolyl-D-ornithyl-L-prolyl]] (cyclo(I[dPip][Pip][dOrn]P[dF])), the concentration for half-maximal inhibition (IC50) at AVP-V1 sites (setting [1]) was greater than 1000 nM; at AVP-V2 sites (setting [5]), greater than 10000 nM. The inhibition at 0.1 µM at uterine OT receptors (setting [2]) was 28%.
As for `CC[C@H](C)[C@@H]1NC(=O)[C@@H](Cc2ccccc2)NC(=O)[C@@H]2CCCN2C(=O)[C@@H](Cc2c[nH]cn2)NC(=O)[C@H](CCCCNC(=O)OCc2ccccc2)NC(=O)[C@H]2CCCCN2C1=O` [Example 37, Cyclo[D-Phenylalanyl-L-isoleucyl-D-pipecolyl-L-(carbobenzyloxy)lysyl-D-histidyl-L-prolyl]] (cyclo(I[dPip]K(Cbz)[dH]P[dF])), the half-inhibitory concentration (IC50) is 10000 nM at AVP-V1 sites (setting [1]), greater than 100 nM on uterine OT receptors and greater than 10000 nM on AVP-V2 sites (setting [6]).
For the compound `CC[C@H](C)[C@@H]1NC(=O)[C@@H](Cc2ccccc2)NC(=O)[C@@H]2CCCN2C(=O)[C@@H](CC(=O)OC(C)(C)C)NC(=O)[C@@H]2CCCCN2C(=O)[C@H]2CCCCN2C1=O` [Example 179, c-[D-Phenylalanyl-L-isoleucinyl-D-pipecolyl-L-pipecolyl-D-(β-t-butyl)aspartyl-L-prolyl]] (cyclo(I[dPip][Pip][dD](OtBu)P[dF])), the half-maximal inhibitory concentration (IC50) on AVP-V1 sites (setting [1]) and at AVP-V2 sites (setting [6]) was greater than 10000 nM each time. On uterine OT receptors (1 h, @ 1,000 (nM), read-out: [^3 H]OT: percent inhibition of radioligand at the given concentration), the inhibition at 1 µM was 63%.
For `CC[C@H](C)[C@@H]1NC(=O)[C@@H](Cc2ccccc2)NC(=O)[C@@H]2CCCN2C(=O)[C@@H](Cc2ccccc2)N(C)C(=O)[C@@H]2CCCCN2C(=O)[C@H]2CCCNN2C1=O` [Example 111, c-[D-Phenylalanyl-L-isoleucyl-D-piperazyl-L-pipecolyl-N-methyl-D-phenylalanyl-L-prolyl]] (cyclo(I[X6][Pip][dNMeF]P[dF])), the half-maximal inhibitory concentration (IC50) turned out to be 4200 nM at AVP-V1 sites (setting [3]), 111 nM at uterine OT receptors and 3500 nM on AVP-V2 sites (setting [4]).
On to `CC[C@H](C)[C@@H]1NC(=O)[C@@H](Cc2c[nH]c3ccccc23)NC(=O)[C@@H]2CCCN2C(=O)[C@@H](Cc2ccccc2)N(C)C(=O)[C@H](CCCN)NC(=O)[C@H]2CCCCN2C1=O` [Example 40, Cyclo[D-tryptophanyl-L-isoleucyl-D-pipecolyl-L-ornithyl-D-(N^α Methyl)phenylalanyl-L-prolyl]] (cyclo(I[dPip][Orn][dNMeF]P[dW])), for which the IC50 on AVP-V1 sites (setting [1]) and at AVP-V2 sites (setting [5]) was greater than 1000 nM in each case. The inhibition at 0.1 µM on uterine OT receptors (setting [2]) turned out to be 59%.
Regarding `CC[C@H](C)[C@@H]1NC(=O)[C@@H](Cc2c[nH]c3ccccc23)NC(=O)[C@@H]2CCCN2C(=O)[C@@H](Cc2c[nH]cn2)NC(=O)[C@H](CCCCNC(=O)OCc2ccccc2)NC(=O)[C@H]2CCCCN2C1=O` [Example 38, Cyclo[D-tryptophanyl-L-isoleucyl-D-pipecolyl-L-(carbobenzyloxy)lysyl-D-histidyl-L-prolyl]] (cyclo(I[dPip]K(Cbz)[dH]P[dW])), the IC50 at AVP-V1 sites (setting [1]) is greater than 1000 nM; at AVP-V2 sites (setting [6]) it was 10000 nM. The inhibition at 0.1 µM on uterine OT receptors (setting [2]) came out at 60%.
In the case of `CC[C@H](C)[C@@H]1NC(=O)[C@@H](Cc2c[nH]c3ccccc23)NC(=O)[C@@H]2CCCN2C(=O)[C@@H](Cc2ccccc2)NC(=O)[C@@H]2CNCCN2C(=O)[C@H]2CCCCN2C1=O` [Example 87, c-[D-Tryptophanyl-L-isoleucinyl-D-pipecolyl-L-piperazin-2-yl-D-phenylalanyl-L-prolyl]] (cyclo(I[dPip][Pip(4-aza)][dF]P[dW])), the figures for the concentration for half-maximal inhibition (IC50) at AVP-V1 sites (setting [1]), at uterine OT receptors and on AVP-V2 sites (setting [5]) were greater than 10000 nM, 62 nM and greater than 1000 nM, respectively.
`CC[C@H](C)[C@@H]1NC(=O)[C@@H](Cc2ccccc2)NC(=O)[C@@H]2CCCN2C(=O)[C@@H](Cc2c[nH]cn2)NC(=O)[C@H]2CN(C(=O)OCc3ccccc3)CCN2C(=O)[C@H]2CCCCN2C1=O` [Example 82, c-[D-Phenylalanyl-L-isoleucinyl-D-pipecolyl-D-piperazin-2-yl(4Cbz)-D-histidinyl-L-prolyl]] (cyclo(I[dPip][dPip(4-aza,4-Cbz)][dH]P[dF])): the IC50 was determined as 10000 nM on AVP-V1 sites (setting [1]), 73 nM on uterine OT receptors and 10000 nM at AVP-V2 sites (setting [6]).
Consider `CN1C(=O)[C@@H]2CCCCN2C(=O)[C@H]2CCCCN2C(=O)[C@H](CCc2ccccc2)NC(=O)[C@@H](Cc2ccccc2)NC(=O)[C@@H]2CCCN2C(=O)[C@H]1Cc1ccccc1` [Example 135, c-[D-Phenylalanyl-L-homophenylalanyl-D-pipecolyl-L-pipecolyl-D-(N-methyl)phenylalanyl-L-prolyl]] (cyclo(P[dF][hPhe][dPip][Pip][dNMeF])), for which the 50% inhibitory concentration (IC50) at AVP-V1 sites (setting [3]) amounted to 8800 nM; at uterine OT receptors it was 3400 nM; at AVP-V2 sites (setting [4]), 5000 nM.
For the compound `CC[C@H](C)[C@@H]1NC(=O)[C@@H](Cc2c[nH]c3ccccc23)NC(=O)[C@@H]2CCCN2C(=O)[C@@H](Cc2ccccc2)N(C)C(=O)[C@H]2CN(C(=O)OCc3ccccc3)CCN2C(=O)[C@H]2CCCCN2C1=O` [Example 91, c-[D-Tryptophanyl-L-isoleucinyl-D-pipecolyl-D-piperazin-2-yl(4-Cbz)-D-(N^α -methyl)phenylalanyl-L-prolyl]] (cyclo(I[dPip][dPip(4-aza,4-Cbz)][dNMeF]P[dW])), the IC50 is greater than 10000 nM at AVP-V1 sites (setting [1]), 93 nM on uterine OT receptors and greater than 1000 nM at AVP-V2 sites (setting [5]).
For `CC[C@H](C)[C@@H]1NC(=O)[C@@H](Cc2ccccc2)NC(=O)[C@@H]2CCCN2C(=O)[C@@H](Cc2ccccc2)NC(=O)[C@@H]2CCCCN2C(=O)[C@H]2CCCCN2C1=O` [Example 103, c-[D-Phenylalanyl-L-isoleucyl-D-pipecolyl-L-pipecolyl-D-phenylalanyl-L-prolyl]] (cyclo(I[dPip][Pip][dF]P[dF])), the results for the half-inhibitory concentration (IC50) at AVP-V1 sites (setting [3]), at uterine OT receptors and at AVP-V2 sites (setting [6]) were 5690 nM, 370 nM and greater than 10000 nM, respectively.
Take `CC[C@H](C)[C@@H]1NC(=O)[C@@H](Cc2ccccc2)NC(=O)[C@@H]2CCCN2C(=O)[C@@H](Cc2ccccc2)NC(=O)[C@H]2CN(C(=O)OCc3ccccc3)CCN2C(=O)[C@H]2CCCCN2C1=O` [Example 76, c-[D-Phenylalanyl-L-isoleucinyl-D-pipecolyl-D-piperazin-2-yl(4-Cbz)-D-phenylalanyl-L-prolyl]] (cyclo(I[dPip][dPip(4-aza,4-Cbz)][dF]P[dF])): the results for the IC50 on AVP-V1 sites (setting [3]), on uterine OT receptors and at AVP-V2 sites (setting [4]) were 9300 nM, 460 nM and 10600 nM, respectively.
